From patent publication US12012411B2, “Viral replication inhibitors” (Katholieke Universiteit Leuven, priority 2011, dated 2024) come the findings set out here.

The subject of series [1] is DENV-4 strain Dak HD 34 460. The series can be described thus: Antiviral activity against DENV-4 in Vero-B cells (viral RNA load by RT-qPCR). The class given is cell-based, Dengue virus. The note with it: Dengue virus, DENV4, Vero B.
Series [2] deals with DENV-3 strain H87 prototype. The series can be described thus: Antiviral activity against DENV-3 in Vero-B cells (viral RNA load by RT-qPCR). The class given is cell-based, Dengue virus. The settings on record: Dengue virus, DENV3, Vero B. Background: Quantitative PCR measures a nucleic acid by following its amplification.
A further series deals with DENV-2 NGC. The series can be described thus: Antiviral activity against DENV-2 NGC in Vero-B cells (viral RNA load by RT-qPCR). The class given is cell-based, Dengue virus. The settings on record: Dengue virus, DENV2, Vero B, DENV-2 in Vero-B cells; inhibition of viral RNA replication by 50% (Table 3).
A short description of a further series: in vitro. The settings on record: African green monkey; for CC50 at 4 days: uninfected quiescent Vero-B cells.

pEC50: −log10 of the molar value. Where only a bound is given, the exact number is not on record here.

The term pEC50 denotes −log10 of the EC50, conventionally taken in molar units. On to `COc1cc(NC(C(=O)c2c[nH]c3ccccc23)c2ccccc2)c(F)c(OC)c1` (centres unmarked) [CPD-345], for which the pEC50 in series [1] was 5.53; in series [2], 5.76; in the series on DENV-2 NGC, 6.68. In “in vitro”, the CC50 at 4 days came to 106 µM.
With `COc1cccc(NC(C(=O)c2c[nH]c3ncccc23)c2ccccc2)c1` (centres unmarked) [CPD-194], the figures for the pEC50 (in series [1]; in the series with DENV-2 NGC) were 4.73 and 6.03, respectively. This molecule also came in with a CC50 at 4 days in “in vitro” of 61 µM.
For `COc1cccc(NC(C(=O)c2c[nH]c3ccc(OC)cc23)c2ccccc2)c1` (centres unmarked) [CPD-092], the values for the pEC50 (in series [1]; in series [2]; in the series on DENV-2 NGC) were 5.17, 6.03 and 7.00, respectively. In “in vitro”, this molecule had a CC50 at 4 days of 19 µM.
On to `COc1cccc(NC(C(=O)c2c[nH]c3nc(C)ccc23)c2ccccc2)c1` (centres unmarked) [CPD-225], for which the negative-log EC50 (pEC50) in series [1] is 5.94; in series [2], 5.52; in the series with DENV-2 NGC, 6.42. For the same molecule, the CC50 at 4 days in “in vitro” is over 134 µM.
The like results for `COc1cc(NC(C(=O)c2c[nH]c3c(C)cccc23)c2ccc(F)cc2)cc(OC)c1` (centres unmarked) [CPD-341] were, in that order, 5.47, 7.30, 8.70 and 12 µM.
In the case of `CCOc1ncc(NC(C(=O)c2c[nH]c3ccccc23)c2ccccc2)cc1OC` (centres unmarked) [CPD-258], the figures for the pEC50 (in series [1]; in the series on DENV-2 NGC) were 5.03 and 5.83, respectively. Moreover, the CC50 at 4 days in the series “in vitro” is 72 µM.
In the case of `COc1cc(O)cc(NC(C(=O)c2c[nH]c3ccccc23)c2ccccc2)c1` (centres unmarked) [CPD-359], the values for the negative logarithm of the EC50 (pEC50) (in series [1]; in the series with DENV-2 NGC) were 5.26 and 7.00, respectively. The molecule also yielded a CC50 at 4 days in “in vitro” of 52 µM.
On to `COc1cc(NC(C(=O)c2cn(C)c3c(CCO)cccc23)c2ccccc2)cc(OC)c1` (centres unmarked) [CPD-358], for which the pEC50 in the series on DENV-2 NGC is 6.74. In the series “in vitro”, this molecule showed a CC50 at 4 days of 63 µM.
The like results for `COc1cccc(NC(C(=O)c2c[nH]c3ccccc23)c2cc(C)no2)c1` (centres unmarked) [CPD-102] were, in that order, 6.21 and 65 µM.
The matching figures for `COc1cncc(NC(C(=O)c2c[nH]c3ccccc23)c2cccnc2)n1` (centres unmarked) [CPD-280]: 6.11 and over 139 µM.
The like results for `COc1cccc(NC(C(=O)c2cn(S(=O)(=O)C3CCNCC3)c3ccccc23)c2ccccc2)c1` (centres unmarked) [CPD-217] were, in that order, 6.60 and 11 µM.
Molecule `COc1cccc(NC(C(=O)c2cn(C)c3ccccc23)c2cc(C)on2)c1` (centres unmarked) [CPD-117] had a pEC50 in the series on DENV-2 NGC of 5.45. For the same molecule, the CC50 at 4 days in “in vitro” was over 133 µM.
`COc1cccc(NC(C(=O)c2c[nH]c3ccccc23)c2ccc(CO)cc2)c1` (centres unmarked) [CPD-127] gave a negative-log EC50 (pEC50) with DENV-2 NGC of 5.67. The same molecule showed a CC50 at 4 days in the series “in vitro” of 72 µM.
The like results for `COc1cccc(NC(C(=O)c2c[nH]c3ccccc23)c2cccc3cnccc23)c1` (centres unmarked) [CPD-047] were, in that order, 6.38 and 16 µM.
In the series with DENV-2 NGC, `COc1cccc(N2C(=O)CN(C)n3cc(c4ccccc43)C(=O)C2c2ccccc2)c1` (centres unmarked) [CPD-115] showed a pEC50 of 4.98. The same molecule registered a CC50 at 4 days in the series “in vitro” of 49 µM.
In turn, `O=C(c1c[nH]c2ccccc12)C(Nc1cccc(CO)c1)c1ccccc1` (centres unmarked) [CPD-179] had a pEC50 in the series with DENV-2 NGC of 5.28. Further, in the series “in vitro”, the CC50 at 4 days was found to be 135 µM.
Take `COc1cc(CN(C)C)cc(NC(C(=O)c2c[nH]c3ccccc23)c2ccccc2)c1` (centres unmarked) [CPD-263]: in the series on DENV-2 NGC, the pEC50 was 5.66. Further, in “in vitro”, the CC50 at 4 days came out at 13 µM.
For `COc1cccc(NC(C(=O)c2c[nH]c3ccccc23)c2cccs2)c1` (centres unmarked) [CPD-024], the pEC50 in the series with DENV-2 NGC was 6.30. In “in vitro”, this molecule showed a CC50 at 4 days of 14 µM.
In the case of `COc1cccc(NC(C(=O)c2c[nH]c3cc(N4CCOCC4)ccc23)c2ccccc2)c1` (centres unmarked) [CPD-237], the pEC50 is 5.08 in series [1] and 5.87 in the series with DENV-2 NGC. In addition, in “in vitro”, the CC50 at 4 days was over 113 µM.
With `COc1cc(NC(C(=O)c2c[nH]c3ccccc23)c2cccnc2)cc(OCCO)c1` (centres unmarked) [CPD-343], the negative-log EC50 (pEC50) was 5.51 in series [2] and 6.72 in the series with DENV-2 NGC. The CC50 at 4 days in the series “in vitro” was over 119 µM.
For `COc1cccc(NC(C(=O)c2cn(CCN(C)C)c3ccccc23)c2ccccc2)c1` (centres unmarked) [CPD-114], in the series with DENV-2 NGC, the pEC50 is 5.96. In the series “in vitro”, this molecule yielded a CC50 of 52 µM.
Consider `COc1cccc(NC(C(=O)c2nn(C)c3ccccc23)c2cnc(OC)cn2)c1` (centres unmarked) [CPD-272], for which the pEC50 in the series with DENV-2 NGC was 6.33. Further, in the series “in vitro”, the CC50 at 4 days was over 124 µM.
Regarding `COc1cccc(NC(C(=O)c2cn(CCN)c3ccccc23)c2ccccc2)c1` (centres unmarked) [CPD-105], the pEC50 in the series with DENV-2 NGC was 5.91. The CC50 in the series “in vitro” came to 14 µM.
In turn, `COc1cccc(NC(C(=O)c2c[nH]c3ccccc23)c2cn3cccc(C)c3n2)c1` (centres unmarked) [CPD-088] gave a pEC50 with DENV-2 NGC of 5.60. The molecule also gave a CC50 at 4 days in “in vitro” of over 121 µM.
The like results for `COc1cc(NC(C(=O)c2cn(S(C)(=O)=O)c3ccccc23)c2ccccc2)ccn1` (centres unmarked) [CPD-121] were, in that order, 5.24 and 60 µM.
The like results for `CCOC(=O)c1cccc(NC(C(=O)c2c[nH]c3ccccc23)c2ccccc2)c1` (centres unmarked) [CPD-068] were, in that order, 5.88 and 12 µM.
For `COc1cccc(NC(C(=O)c2csc3c2CCN(C)C3)c2ccccc2)c1` (centres unmarked) [CPD-202], the pEC50 with DENV-2 NGC is 5.08. This molecule also showed a CC50 at 4 days in the series “in vitro” of 104 µM.
`COc1cc(NC(C(=O)c2c[nH]c3cc(C#N)ccc23)c2ccccc2)ccn1` (centres unmarked) [CPD-093] showed a pEC50 in the series with DENV-2 NGC of 4.77. The same molecule yielded a CC50 at 4 days in “in vitro” of 87 µM.
The matching figures for `COc1cccc(NC(C(=O)c2c[nH]c3cc(CO)ccc23)c2ccccc2)c1` (centres unmarked) [CPD-140]: 5.67 and 53 µM.
The matching figures for `COc1cccc(NC(C(=O)c2c[nH]c3ccccc23)c2ccc(COCN(C)C)cc2)c1` (centres unmarked) [CPD-112]: 5.49 and 12 µM.
The like results for `CNS(=O)(=O)c1cccc(NC(C(=O)c2c[nH]c3ccccc23)c2ccccc2)c1` (centres unmarked) [CPD-052] were, in that order, 5.43 and 52 µM.
As for `O=C(c1c[nH]c2ccccc12)C(Nc1ccnc(F)c1)c1ccccc1` (centres unmarked) [CPD-207], in the series with DENV-2 NGC, the pEC50 was 5.42. In addition, the CC50 at 4 days in “in vitro” was 16 µM.
The like results for `COc1cncc(NC(C(=O)c2c[nH]c3cc(F)ccc23)c2ccccc2)n1` (centres unmarked) [CPD-287] were, in that order, 6.36 and over 132 µM.
On to `COc1cc(NC(C(=O)c2c[nH]c3ccccc23)c2ccccc2)ncn1` (centres unmarked) [CPD-072], for which the pEC50 with DENV-2 NGC was 5.16. The same molecule had a CC50 at 4 days in “in vitro” of 68 µM.
The matching figures for `CCOc1ccc(C(Nc2cccc(OC)c2)C(=O)c2c[nH]c3ccccc23)cn1` (centres unmarked) [CPD-250]: 6.66 and 15 µM.
The like results for `COc1cc(NC(C(=O)c2c[nH]c3c(CO)cccc23)c2ccccc2)cc(OC)c1` (centres unmarked) [CPD-362] were, in that order, 7.05 and 41 µM.
The matching figures for `COc1cc(NC(C(=O)c2c[nH]c3c(CCN(C)C)cccc23)c2ccccc2)cc(OC)c1` (centres unmarked) [CPD-365]: 5.69 and 12 µM.
Molecule `O=C(c1c[nH]c2ccccc12)C(Nc1cccc(Cl)c1)c1ccccc1` (centres unmarked) [CPD-006] had a negative logarithm of the EC50 (pEC50) in the series with DENV-2 NGC of 6.12. Besides, the CC50 at 4 days in the series “in vitro” came to 6 µM.
The matching figures for `COc1cccc(NC(C(=O)c2c[nH]c3ccccc23)c2nccn2C)c1` (centres unmarked) [CPD-026]: 4.76 and over 138 µM.
Turning to `COc1cccc(NC(C(=O)c2c[nH]c3ccccc23)c2cc(C)n(C)n2)c1` (centres unmarked) [CPD-267], the pEC50 with DENV-2 NGC is 5.89. The molecule also gave a CC50 at 4 days in the series “in vitro” of 79 µM.
The like results for `COc1cccc(NC(C(=O)c2cnn3ccccc23)c2ccccc2)c1` (centres unmarked) [CPD-197] were, in that order, 5.48 and over 139 µM.
The matching figures for `O=C(c1c[nH]c2ccccc12)C(Nc1cncc(OC(F)F)c1)c1ccccc1` (centres unmarked) [CPD-269]: 6.32 and 13 µM.
The matching figures for `COc1cccc(NC(C(=O)c2nn(C)c3c2CN(C)CC3)c2ccccc2)c1` (centres unmarked) [CPD-223]: 4.24 and over 128 µM.
As to `COc1cccc(NC(C(=O)c2c[nH]c3ccccc23)c2cn3c(n2)COCC3)c1` (centres unmarked) [CPD-080], the pEC50 with DENV-2 NGC was 6.00. Also, the CC50 at 4 days in “in vitro” was over 124 µM.
The matching figures for `COc1cc(NC(C(=O)c2c[nH]c3ccccc23)c2ccc(C#N)cc2)ccn1` (centres unmarked) [CPD-061]: 5.77 and 59 µM.
`COc1cccc(N(C)C(C(=O)c2c[nH]c3ccccc23)c2ccccc2)c1` (centres unmarked) [CPD-018]: the pEC50 in the series with DENV-2 NGC was 6.43. The CC50 at 4 days in “in vitro” was determined as 19 µM.
The like results for `COc1cccc(NC(C(=O)c2c[nH]c3cnccc23)c2ccccc2)c1` (centres unmarked) [CPD-200] were, in that order, 5.65 and 54 µM.
The matching figures for `COc1cc(NC(C(=O)c2c[nH]c3cc(Cl)ccc23)c2cn3ccccc3n2)ccn1` (centres unmarked) [CPD-069]: 5.67 and 71 µM.
The matching figures for `CNc1ncc(NC(C(=O)c2c[nH]c3ccccc23)c2ccccc2)cc1OC` (centres unmarked) [CPD-261]: 6.41 and 15 µM.
In the series with DENV-2 NGC, `COc1ccc(C(Nc2cncc(OC)n2)C(=O)c2c[nH]c3ccccc23)cn1` (centres unmarked) [CPD-284] gave a pEC50 of 6.21. The CC50 at 4 days in the series “in vitro” came to 74 µM.
In the series on DENV-2 NGC, `COc1cccc(NC(C(=O)c2c[nH]c3c(C)cccc23)c2ccccc2)c1` (centres unmarked) [CPD-224] had a pEC50 of 7.30. The same molecule displayed a CC50 at 4 days in “in vitro” of over 134 µM.
Regarding `COc1cccc(NC(C(=O)c2c[nH]c3ccc(CO)cc23)c2ccccc2)c1` (centres unmarked) [CPD-219], the values for the pEC50 (in series [2]; with DENV-2 NGC) were 4.66 and 6.28, respectively. In “in vitro”, this molecule yielded a CC50 at 4 days of 86 µM.
Regarding `CC(C)Oc1cncc(NC(C(=O)c2c[nH]c3ccccc23)c2ccccc2)c1` (centres unmarked) [CPD-247], the pEC50 with DENV-2 NGC is 6.38. The molecule also displayed a CC50 at 4 days in “in vitro” of 15 µM.
The like results for `COc1cccc(NC(C(=O)c2c[nH]c3cc(C#N)ccc23)c2ccccc2)c1` (centres unmarked) [CPD-094] were, in that order, 6.85 and 11 µM.
